# Assay results as given in PubChem BioAssay AID248 (DTP/NCI, 2004).
# Where “and” joins values, the source holds several entries; their conditions need not be identical. Equal entries are not always repeated. Inconclusive results and toxic doses are left out.
# Test system: L1210 leukemia ip in BDF1 mice, survival T/C
# Assay: NCI In Vivo Anticancer Drug Screen. Data for tumor model L1210 Leukemia (intraperitoneal) in B6D2F1 (BDF1) mice
# Details: endpoint: mean survival time, higher = longer survival
# Outline: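 Tumor was transplanted into mice, which were then dosed with test compound or vehicle alone. Survival was recorded for each group, and the treated figure was expressed relative to the control figure.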
# [1] = dose: 100.0 mg/kg/injection, schedule: Q04DX003 (ip), vehicle: saline with Tween-80
# [2] = dose: 200.0 mg/kg/injection, schedule: Q04DX003 (ip), vehicle: saline with Tween-80
# [3] = dose: 400.0 mg/kg/injection, schedule: Q04DX003 (ip), vehicle: saline with Tween-80
# [4] = dose: 100.0 mg/kg/injection, schedule: Q01DX009 (ip), vehicle: saline with Tween-80
# [5] = dose: 200.0 mg/kg/injection, schedule: Q01DX009 (ip), vehicle: saline with Tween-80
# [6] = dose: 400.0 mg/kg/injection, schedule: Q01DX009 (ip), vehicle: saline with Tween-80
# [7] = dose: 100.0 mg/kg/injection, schedule: Q04DX003 (ip), vehicle: Klucel (hydroxypropylcellulose) (HPC)
# [8] = dose: 200.0 mg/kg/injection, schedule: Q04DX003 (ip), vehicle: Klucel (hydroxypropylcellulose) (HPC)
# [9] = dose: 400.0 mg/kg/injection, schedule: Q04DX003 (ip), vehicle: Klucel (hydroxypropylcellulose) (HPC)
smiles,measurement,setting,value
Cc1cc(OC(=O)Nc2cccc3ccccc23)ccc1Cl,T/C,"dose: 100.0 mg/kg/injection, schedule: Q01DX009 (ip), vehicle: carboxymethylcellulose (CMC)",97 % of control and 101 % of control
same,T/C,"dose: 100.0 mg/kg/injection, schedule: Q04DX002 (ip), vehicle: Klucel (hydroxypropylcellulose) (HPC)",105 % of control
same,T/C,"dose: 100.0 mg/kg/injection, schedule: Q04DX002 (ip), vehicle: carboxymethylcellulose (CMC)",93 % of control and 91 % of control
same,T/C,"dose: 100.0 mg/kg/injection, schedule: Q04DX003 (ip), vehicle: carboxymethylcellulose (CMC)",103 % of control
same,T/C,"dose: 200.0 mg/kg/injection, schedule: Q01DX009 (ip), vehicle: carboxymethylcellulose (CMC)",98 % of control and 91 % of control
same,T/C,"dose: 200.0 mg/kg/injection, schedule: Q04DX002 (ip), vehicle: Klucel (hydroxypropylcellulose) (HPC)",97 % of control
same,T/C,"dose: 200.0 mg/kg/injection, schedule: Q04DX002 (ip), vehicle: carboxymethylcellulose (CMC)",97 % of control and 98 % of control
same,T/C,"dose: 200.0 mg/kg/injection, schedule: Q04DX003 (ip), vehicle: carboxymethylcellulose (CMC)",94 % of control
same,T/C,"dose: 400.0 mg/kg/injection, schedule: Q01DX009 (ip), vehicle: carboxymethylcellulose (CMC)",94 % of control and 98 % of control
same,T/C,"dose: 400.0 mg/kg/injection, schedule: Q04DX002 (ip), vehicle: Klucel (hydroxypropylcellulose) (HPC)",109 % of control
same,T/C,"dose: 400.0 mg/kg/injection, schedule: Q04DX002 (ip), vehicle: carboxymethylcellulose (CMC)",95 % of control
same,T/C,"dose: 400.0 mg/kg/injection, schedule: Q04DX003 (ip), vehicle: carboxymethylcellulose (CMC)",90 % of control
CNC[C@@H](O)c1ccc(O)c(O)c1,T/C,"dose: 0.1 mg/kg/injection, schedule: Q01DX009 (ip), vehicle: saline",94 % of control
same,T/C,"dose: 0.2 mg/kg/injection, schedule: Q01DX001 (ip), vehicle: saline",112 % of control
same,T/C,"dose: 0.2 mg/kg/injection, schedule: Q01DX009 (ip), vehicle: saline",109 % of control
same,T/C,"dose: 0.31 mg/kg/injection, schedule: Q01DX009 (ip), vehicle: saline",111 % of control
same,T/C,"dose: 0.4 mg/kg/injection, schedule: Q01DX001 (ip), vehicle: saline",106 % of control
same,T/C,"dose: 0.4 mg/kg/injection, schedule: Q01DX009 (ip), vehicle: saline",102 % of control
same,T/C,"dose: 0.4 mg/kg/injection, schedule: Q04DX003 (ip), vehicle: saline",108 % of control
same,T/C,"dose: 0.59 mg/kg/injection, schedule: Q01DX009 (ip), vehicle: saline",95 % of control
same,T/C,"dose: 0.62 mg/kg/injection, schedule: Q01DX009 (ip), vehicle: saline",98 % of control
same,T/C,"dose: 0.8 mg/kg/injection, schedule: Q01DX001 (ip), vehicle: saline",104 % of control
same,T/C,"dose: 0.8 mg/kg/injection, schedule: Q04DX003 (ip), vehicle: saline",113 % of control
same,T/C,"dose: 0.9 mg/kg/injection, schedule: Q01DX009 (ip), vehicle: saline",97 % of control
same,T/C,"dose: 1.1 mg/kg/injection, schedule: Q01DX001 (ip), vehicle: saline",96 % of control
same,T/C,"dose: 1.25 mg/kg/injection, schedule: Q01DX009 (ip), vehicle: saline",101 % of control
same,T/C,"dose: 1.3 mg/kg/injection, schedule: Q01DX009 (ip), vehicle: saline",97 % of control
same,T/C,"dose: 1.6 mg/kg/injection, schedule: Q04DX003 (ip), vehicle: saline",98 % of control
same,T/C,"dose: 2.3 mg/kg/injection, schedule: Q04DX003 (ip), vehicle: saline",103 % of control
same,T/C,"dose: 2.5 mg/kg/injection, schedule: Q01DX009 (ip), vehicle: saline",102 % of control
same,T/C,"dose: 3.6 mg/kg/injection, schedule: Q04DX003 (ip), vehicle: saline",109 % of control
CCOC(=O)CC(=O)c1ccccc1SC,T/C,[1],102 % of control
same,T/C,[2],100 % of control
same,T/C,[3],91 % of control
CC(C)C(C=O)(CCN1CCCCC1)c1cccc2ccccc12 (centres undefined),T/C,"dose: 25.0 mg/kg/injection, schedule: Q04DX002 (ip), vehicle: saline with Tween-80",98 % of control
same,T/C,"dose: 50.0 mg/kg/injection, schedule: Q04DX002 (ip), vehicle: saline with Tween-80",98 % of control
same,T/C,"dose: 100.0 mg/kg/injection, schedule: Q04DX002 (ip), vehicle: saline with Tween-80",88 % of control
Cc1ccc(C2(C#N)CC2)cc1,T/C,[4],98 % of control
same,T/C,[1],108 % of control
same,T/C,[5],98 % of control
same,T/C,[2],104 % of control
same,T/C,[6],112 % of control
same,T/C,[3],104 % of control
COc1ccc2c(c1)CNC1c3cc(OC)c(O)cc3CC21 (centres undefined),T/C,[2],88 % of control
CN(c1ccccc1)P(=O)(N1CC1)N1CC1,T/C,"dose: 4.4 mg/kg/injection, schedule: Q01DX009 (ip), vehicle: carboxymethylcellulose (CMC)",117 % of control
same,T/C,"dose: 6.2 mg/kg/injection, schedule: Q01DX001 (ip), vehicle: carboxymethylcellulose (CMC)",111 % of control
same,T/C,"dose: 6.6 mg/kg/injection, schedule: Q01DX009 (ip), vehicle: carboxymethylcellulose (CMC)",152 % of control
same,T/C,"dose: 12.5 mg/kg/injection, schedule: Q01DX001 (ip), vehicle: carboxymethylcellulose (CMC)",104 % of control
same,T/C,"dose: 15.0 mg/kg/injection, schedule: Q01DX009 (ip), vehicle: carboxymethylcellulose (CMC)",105 % of control
same,T/C,"dose: 22.0 mg/kg/injection, schedule: Q01DX001 (ip), vehicle: carboxymethylcellulose (CMC)",123 % of control
same,T/C,"dose: 33.0 mg/kg/injection, schedule: Q01DX001 (ip), vehicle: carboxymethylcellulose (CMC)",159 % of control
same,T/C,"dose: 50.0 mg/kg/injection, schedule: Q01DX001 (ip), vehicle: carboxymethylcellulose (CMC)",115 % of control
same,T/C,"dose: 75.0 mg/kg/injection, schedule: Q01DX001 (ip), vehicle: carboxymethylcellulose (CMC)",102 % of control
COC(=O)c1ccc(OC(=O)Nc2ccc(C)c(NC(=O)Oc3ccc(C(=O)OC)cc3)c2)cc1,T/C,"dose: 50.0 mg/kg/injection, schedule: Q01DX009 (ip), vehicle: saline with Tween-80",96 % of control
same,T/C,[4],96 % of control
same,T/C,[5],101 % of control
CC(=O)c1ccc(OC(=O)Nc2ccc(C)cc2)cc1,T/C,"dose: 100.0 mg/kg/injection, schedule: Q01DX009 (ip), vehicle: Klucel (hydroxypropylcellulose) (HPC)",109 % of control
same,T/C,"dose: 200.0 mg/kg/injection, schedule: Q01DX009 (ip), vehicle: Klucel (hydroxypropylcellulose) (HPC)",105 % of control
same,T/C,"dose: 400.0 mg/kg/injection, schedule: Q01DX009 (ip), vehicle: Klucel (hydroxypropylcellulose) (HPC)",88 % of control
O=c1[nH]c(/C=C/c2ccc(Cl)cc2)nc(O)c1-c1ccc(Cl)cc1,T/C,"dose: 100.0 mg/kg/injection, schedule: Q01DX001 (ip), vehicle: saline",104 % of control
same,T/C,[7],102 % of control
same,T/C,"dose: 200.0 mg/kg/injection, schedule: Q01DX001 (ip), vehicle: saline",98 % of control
same,T/C,[8],96 % of control
same,T/C,"dose: 400.0 mg/kg/injection, schedule: Q01DX001 (ip), vehicle: saline",93 % of control
same,T/C,[9],98 % of control
CCn1c(Cl)c(C(=O)O)c2ccccc21,T/C,"dose: 50.0 mg/kg/injection, schedule: Q04DX003 (ip), vehicle: Klucel (hydroxypropylcellulose) (HPC)",97 % of control
same,T/C,[7],97 % of control
same,T/C,[8],97 % of control
Cc1cc(CN)c(C)cc1CN,T/C,"dose: 50.0 mg/kg/injection, schedule: Q01DX009 (ip), vehicle: saline",96 % of control
same,T/C,"dose: 100.0 mg/kg/injection, schedule: Q01DX009 (ip), vehicle: saline",95 % of control
same,T/C,"dose: 100.0 mg/kg/injection, schedule: Q04DX003 (ip), vehicle: saline",103 % of control
same,T/C,"dose: 200.0 mg/kg/injection, schedule: Q01DX009 (ip), vehicle: saline",86 % of control
same,T/C,"dose: 200.0 mg/kg/injection, schedule: Q04DX003 (ip), vehicle: saline",97 % of control
CC1CC=CCC1COC(=O)C(=O)OCC1CC=CCC1C (centres undefined),T/C,[4],98 % of control
same,T/C,[1],101 % of control
same,T/C,[5],95 % of control
same,T/C,[2],97 % of control
same,T/C,[6],95 % of control
same,T/C,[3],95 % of control
c1ccc(C2=NNC(c3ccccc3)=C(c3ccccc3)C2)cc1,T/C,"dose: 100.0 mg/kg/injection, schedule: Q01DX001 (ip), vehicle: Klucel (hydroxypropylcellulose) (HPC)",89 % of control
same,T/C,[7],98 % of control
same,T/C,"dose: 200.0 mg/kg/injection, schedule: Q01DX001 (ip), vehicle: Klucel (hydroxypropylcellulose) (HPC)",103 % of control
same,T/C,[8],100 % of control
same,T/C,"dose: 400.0 mg/kg/injection, schedule: Q01DX001 (ip), vehicle: Klucel (hydroxypropylcellulose) (HPC)",101 % of control
same,T/C,[9],100 % of control
COc1ccc(/C=C/C=C/C(=O)O)cc1OC,T/C,"dose: 50.0 mg/kg/injection, schedule: Q01DX001 (ip), vehicle: other",102 % of control
same,T/C,"dose: 100.0 mg/kg/injection, schedule: Q01DX001 (ip), vehicle: other",98 % of control
same,T/C,"dose: 200.0 mg/kg/injection, schedule: Q01DX001 (ip), vehicle: other",107 % of control
same,T/C,"dose: 400.0 mg/kg/injection, schedule: Q01DX001 (ip), vehicle: other",91 % of control
